We go through two molecules from paper PMC8714961, “Involvement of P-gp on Reversing Multidrug Resistance Effects of 23-Hydroxybetulinic Acid on Chemotherapeutic Agents” (Frontiers in Pharmacology, 2021).

Structures are written as SMILES.

Series [1] deals with T1, P-gp (Homo sapiens, UniProt P08183). As to the kind of experiment: MDCK-MDR1 transport study, inhibition of VCR transport. To be noted: dog, MDCK-MDR1. As for the experimental part: Briefly, MDCK-MDR1 cells (1×10^5/Well) were seeded onto […] pore-size transwell inserts (Millipore, MA, United States) in 24-well plates.
T1 sequence (P08183 whole entry): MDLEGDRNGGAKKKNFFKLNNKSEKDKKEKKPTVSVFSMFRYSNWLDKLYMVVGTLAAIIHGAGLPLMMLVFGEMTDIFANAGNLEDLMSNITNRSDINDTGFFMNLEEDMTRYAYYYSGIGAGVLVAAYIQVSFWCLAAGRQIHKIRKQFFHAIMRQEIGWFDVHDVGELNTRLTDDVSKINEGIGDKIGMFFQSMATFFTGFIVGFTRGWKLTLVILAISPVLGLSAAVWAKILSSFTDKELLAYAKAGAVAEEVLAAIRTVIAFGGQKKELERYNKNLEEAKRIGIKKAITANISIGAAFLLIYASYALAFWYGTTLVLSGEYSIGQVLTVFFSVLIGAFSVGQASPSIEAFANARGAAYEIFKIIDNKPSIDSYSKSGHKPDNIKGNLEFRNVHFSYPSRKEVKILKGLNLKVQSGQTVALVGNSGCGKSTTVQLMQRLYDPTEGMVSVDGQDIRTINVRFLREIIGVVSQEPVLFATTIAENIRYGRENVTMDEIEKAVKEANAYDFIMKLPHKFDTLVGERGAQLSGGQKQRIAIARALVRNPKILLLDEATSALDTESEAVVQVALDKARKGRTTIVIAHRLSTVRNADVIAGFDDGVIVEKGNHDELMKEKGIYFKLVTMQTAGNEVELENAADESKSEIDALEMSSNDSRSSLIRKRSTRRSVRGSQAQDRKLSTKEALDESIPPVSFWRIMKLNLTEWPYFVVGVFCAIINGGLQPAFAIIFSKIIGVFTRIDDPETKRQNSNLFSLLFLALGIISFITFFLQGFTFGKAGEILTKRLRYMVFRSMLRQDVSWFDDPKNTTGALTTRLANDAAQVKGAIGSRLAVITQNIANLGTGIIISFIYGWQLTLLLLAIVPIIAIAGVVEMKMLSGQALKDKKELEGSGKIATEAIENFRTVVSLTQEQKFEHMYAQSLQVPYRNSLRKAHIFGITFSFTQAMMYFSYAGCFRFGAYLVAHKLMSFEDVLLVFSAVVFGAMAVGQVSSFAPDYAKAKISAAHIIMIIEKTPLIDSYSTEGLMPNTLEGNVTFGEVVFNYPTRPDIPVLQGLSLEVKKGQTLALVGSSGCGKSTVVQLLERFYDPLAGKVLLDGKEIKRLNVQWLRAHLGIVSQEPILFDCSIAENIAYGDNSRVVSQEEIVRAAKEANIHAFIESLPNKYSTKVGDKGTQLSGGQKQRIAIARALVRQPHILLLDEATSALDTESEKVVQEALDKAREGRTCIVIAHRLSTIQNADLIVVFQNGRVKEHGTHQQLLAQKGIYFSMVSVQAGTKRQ
The cells were rinsed with warmed Hank’s balanced salt solution (HBSS), and the inserts were incubated for 20 min at 37°C. […] Aliquots (50 µl) were taken from the receiver compartment at intervals of 30, 60, 90, and 120 min and replaced with fresh buffer. In the study, verapamil (VER), known P-gp inhibitor, was selected as positive control.
The apparent permeability values (Papp) were evaluated in all experiments according to the following equation: Papp=dQ/dt/AC0 (1) where A means the insert area and C0 represents the initial concentration. dQ/dt represents the slope of the cumulative content transported during the time course of the period studied.

The target of series [2] is T1, P-gp. To be noted: Control: digoxin 5 µM alone, MDCK-MDR1 monolayers.
Method: (§1) Briefly, MDCK-MDR1 cells (1×10^5/Well) were seeded onto 0.4 mm pore-size transwell inserts (Millipore, MA, United States) in 24-well plates.
The target of series [3] is T1, P-gp. As to the kind of experiment: in vitro. To be noted: dog, MDCK-MDR1.
Method: as §1

With `CC[C@]1(O)C[C@H]2CN(CCc3c([nH]c4ccccc34)[C@@](C(=O)OC)(c3cc4c(cc3OC)N(C=O)[C@H]3[C@@](O)(C(=O)OC)[C@H](OC(C)=O)[C@]5(CC)C=CCN6CC[C@]43[C@@H]65)C2)C1` [VCR, Vincristine, reference compound], at P-gp [1], the apparent permeability from apical to basolateral (Papp A→B) at 120 min was 0.35 ± 0.17 ×10⁻⁶ cm/s, the Papp B→A at 120 min was 3.86 ± 0.71 ×10⁻⁶ cm/s and the efflux ratio at 120 min is 10.9.

As for `C[C@H]1O[C@@H](O[C@H]2[C@@H](O)C[C@H](O[C@H]3[C@@H](O)C[C@H](O[C@H]4CC[C@@]5(C)[C@H](CC[C@@H]6[C@@H]5C[C@@H](O)[C@]5(C)[C@@H](C7=CC(=O)OC7)CC[C@]65O)C4)O[C@@H]3C)O[C@@H]2C)C[C@H](O)[C@@H]1O` [digoxin, reference compound], at P-gp [2], the “RE (net efflux) of digoxin” value turned out to be 36.56. Further, on P-gp [3], the Papp A→B at 120 min, 5 µM was determined as 0.31 ± 0.05 ×10⁻⁶ cm/s.

Broadly, the Papp A→B is the apparent permeability from the apical to the basolateral side of a cell layer. In general, Papp B→A refers to how fast a substance crosses the layer from the basolateral side. Usually efflux ratio stands for a quotient of directional permeabilities that is used to spot active efflux.
